What all share (assay type): cell-based
The target in assay [1] is T1, Sodium channel protein type 5 subunit alpha (Homo sapiens, UniProt Q14524). Description: Inhibition of human Nav1.5 expressed in CHO-K1 cells preincubated with compound for 3 mins in presence of ATXII followed by incubation under ventricular condition at sinus rate at 1 Hz with -100 mV holding potential for 25 sec by automated Qpatch electrophysiological recording.

The target in assay [2] is T1, Sodium channel protein type 5 subunit alpha. Description: Inhibition of human Nav1.5 expressed in CHO-K1 cells preincubated for 3 mins followed by incubation under atrial fibrillation-mimicking condition at 5 Hz with -85 mV holding potential for 12 sec by automated Qpatch electrophysiological recording.
Assay [3] has the same target. In words: Inhibition of human Nav1.5 expressed in CHO-K1 cells preincubated for 3 mins followed by incubation under ventricular condition at sinus rate at 1 Hz with -100 mV holding potential for 25 sec by automated Qpatch electrophysiological recording.

T1 sequence (Q14524 whole entry): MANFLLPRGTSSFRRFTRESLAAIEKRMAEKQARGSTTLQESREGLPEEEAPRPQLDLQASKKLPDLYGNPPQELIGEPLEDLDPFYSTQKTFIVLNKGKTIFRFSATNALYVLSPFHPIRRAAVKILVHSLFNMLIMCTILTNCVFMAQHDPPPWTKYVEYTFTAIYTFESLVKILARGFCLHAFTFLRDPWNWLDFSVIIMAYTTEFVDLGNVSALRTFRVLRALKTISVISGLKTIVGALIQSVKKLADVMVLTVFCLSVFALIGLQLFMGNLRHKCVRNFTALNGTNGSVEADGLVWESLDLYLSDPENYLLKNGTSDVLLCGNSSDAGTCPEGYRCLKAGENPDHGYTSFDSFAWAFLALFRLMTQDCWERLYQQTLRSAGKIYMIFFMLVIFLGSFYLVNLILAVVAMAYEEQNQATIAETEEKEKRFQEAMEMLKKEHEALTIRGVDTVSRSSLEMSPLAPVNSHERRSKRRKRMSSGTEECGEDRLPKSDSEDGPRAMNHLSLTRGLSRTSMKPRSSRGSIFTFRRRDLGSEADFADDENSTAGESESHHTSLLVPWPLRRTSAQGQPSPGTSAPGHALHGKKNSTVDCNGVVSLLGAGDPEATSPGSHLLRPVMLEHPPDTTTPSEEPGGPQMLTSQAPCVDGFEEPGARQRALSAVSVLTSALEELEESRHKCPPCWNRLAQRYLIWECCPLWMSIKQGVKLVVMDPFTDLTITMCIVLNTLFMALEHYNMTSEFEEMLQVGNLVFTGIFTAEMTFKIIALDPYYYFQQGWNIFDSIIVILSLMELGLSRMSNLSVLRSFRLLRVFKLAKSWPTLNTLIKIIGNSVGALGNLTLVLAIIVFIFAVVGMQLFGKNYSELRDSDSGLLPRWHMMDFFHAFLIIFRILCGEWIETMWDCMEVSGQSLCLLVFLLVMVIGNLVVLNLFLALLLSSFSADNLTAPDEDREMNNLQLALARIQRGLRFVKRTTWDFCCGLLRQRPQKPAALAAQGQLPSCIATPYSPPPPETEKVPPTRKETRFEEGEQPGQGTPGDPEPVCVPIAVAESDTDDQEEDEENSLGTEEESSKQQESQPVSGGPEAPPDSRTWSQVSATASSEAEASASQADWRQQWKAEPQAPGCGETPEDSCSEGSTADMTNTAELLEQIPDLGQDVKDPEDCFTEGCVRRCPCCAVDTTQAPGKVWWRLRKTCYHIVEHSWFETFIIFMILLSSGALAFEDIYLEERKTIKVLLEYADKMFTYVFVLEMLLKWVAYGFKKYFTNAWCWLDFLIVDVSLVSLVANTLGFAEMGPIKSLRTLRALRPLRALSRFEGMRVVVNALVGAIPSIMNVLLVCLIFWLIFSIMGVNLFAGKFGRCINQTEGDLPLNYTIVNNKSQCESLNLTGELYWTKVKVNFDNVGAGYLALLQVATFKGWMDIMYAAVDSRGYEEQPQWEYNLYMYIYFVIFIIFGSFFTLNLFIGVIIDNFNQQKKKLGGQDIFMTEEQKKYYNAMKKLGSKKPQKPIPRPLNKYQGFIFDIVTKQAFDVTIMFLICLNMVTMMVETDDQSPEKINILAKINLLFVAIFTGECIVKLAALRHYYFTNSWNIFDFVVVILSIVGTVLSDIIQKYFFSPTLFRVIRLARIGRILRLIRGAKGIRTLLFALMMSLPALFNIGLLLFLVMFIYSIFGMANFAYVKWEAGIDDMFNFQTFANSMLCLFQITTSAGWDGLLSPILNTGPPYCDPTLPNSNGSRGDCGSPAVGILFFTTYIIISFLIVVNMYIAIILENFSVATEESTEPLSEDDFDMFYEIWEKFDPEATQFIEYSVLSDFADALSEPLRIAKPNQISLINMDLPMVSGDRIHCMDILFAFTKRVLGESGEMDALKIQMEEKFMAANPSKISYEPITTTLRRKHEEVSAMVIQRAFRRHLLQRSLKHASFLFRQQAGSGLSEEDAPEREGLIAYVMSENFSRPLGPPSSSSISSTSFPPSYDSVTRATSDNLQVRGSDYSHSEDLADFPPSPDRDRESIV

Take `C[C@@](O)(CS(N)(=O)=O)c1ccc(F)c(-c2nnn(Cc3cc(OC(F)(F)F)ccc3F)n2)c1`: the results for the 50% inhibitory concentration (IC50) in assay [1], in assay [2] and in assay [3] were 11 µM, 1 µM and greater than 30 µM, respectively.
`C[C@@](O)(CS(N)(=O)=O)c1cccc(-c2nnn(Cc3cc(OC(F)(F)F)ccc3F)n2)n1` showed an IC50 in assay [2] of 1 µM.
For `C[C@](O)(CS(N)(=O)=O)c1ccc(Cl)c(-c2nnn(Cc3cc(OC(F)(F)F)ccc3F)n2)c1`, the half-maximal inhibitory concentration (IC50) was determined as 15 µM in assay [1], 1.3 µM in assay [2] and 28 µM in assay [3].
Consider `C[C@@](O)(CS(N)(=O)=O)c1ccc(Cl)c(-c2nnn(Cc3cc(OC(F)(F)F)ccc3F)n2)c1`, for which the figures for the half-inhibitory concentration (IC50) in assay [1], in assay [2] and in assay [3] were 28 µM, 1.3 µM and greater than 30 µM, respectively.
Molecule `C[C@](O)(CS(N)(=O)=O)c1cccc(-c2nnn(Cc3cc(OC(F)(F)F)ccc3F)n2)n1` registered a concentration for half-maximal inhibition (IC50) in assay [2] of 0.8 µM.

The record behind these values is ChEMBL document CHEMBL6134915, “Novel Sulfonamide Derivatives as Nav1.5 Sodium Channel Blockers for Treating Atrial Fibrillation” (ACS Med Chem Lett, 2025).
